No end group written: not given here. *: point of attachment. Biotin = O=C1N[C@H]2[C@H](CS[C@H]2CCCCC(=O)*)N1
Key:
B cell surface CLIP = B cell surface CLIP after 2-Deoxyglucose and dichloroacetate (FIG. 4); assay type: cell-based
[1] = background statement; cited from earlier work
mouse splenic B cells = experiment: TLR activation of mouse splenocytes in vitro, ectopic CLIP on B cells (15G4-FITC versus B220); assay type: cell-based; conditions: for exogenous CLIP expression on activated mouse B cells: treatment in vitro with toll ligand
Description: Mouse splenocytes or T-depleted splenocytes were red cell depleted using Geys Solution, and cells were counted. For T-depleted B cell preparations, B cells were separated by discontinuous Percoll (Pharmacia LKB Biotechnology, Piscataway, N.J.) gradients (13). Those cells layering at the 1.079/1.085 g/ml interface (1.079<ρ≦1.085) are designated throughout as resting B cells. Cells layering at the BSS/1.066 g/ml interface (ρ≦1.066) are designated as activated. Viable cells from this latter interface were isolated using Lympholyte-M (Cedarlane Laboratories, Ltd., Hornby, Ontario, Canada). Cells from each layer were harvested, washed, and resuspended at 10^7 cells/ml in PBS containing 5% fetal calf serum.
Total splenocytes, from either B6.129, Ii-deficient, or H2M-deficient mice were cultured with LPS for 24, 48, 72, or 96 hours as indicated. Cells were harvested and stained by two-color fluorescence using 15G4-FITC anti-mouse CLIP/I-A^6 versus anti-mouse B220 PE.
Freshly isolated splenocytes, single cell suspensions of lymph node cells, resting (or activated) B cells, or primed B cells were isolated from B6.129, Ii-deficient, or H2M-deficient mice and cultured in 24 well plates in complete RPMI medium, with or without the appropriate Toll ligand, at 10^6 cells/ml. Cells were cultured for 24, 48, 72, 96, or up to 144 hours. Cells were harvested and stained by flow cytometric analysis using either a Beckman Coulter Excel or a Beckman Coulter FC500 flow cytometer. Cells were stained by two-color fluorescence using 15G4-FITC anti-mouse CLIP/I-A^b versus anti-mouse B220 PE. For co-culture experiments (5×10^5) were combined with T cells (5×10^4) in 24 well plates in complete medium, with or without the appropriate antigen. Experiments with 3A9, 2A11 or A6.A2 employed 3 mg/ml tryptic digest of HEL as a source of pre-processed antigen, i.e., peptide. Cultures were incubated overnight at 37° C. in a humidified 5% CO2, 95% air incubator.
(§1) Multi-parameter flow cytometric analysis for the fluorescent detection of ectopic CLIP, mouse B220, human CD19 or CD20, human CLIP, human HLA-DR, and human CLIP or apoptosis were performed using a Beckman Coulter Excel or a Beckman Coulter FC500 flow cytometer (Beckman Coulter, Hialeah, Fla.). Mouse splenic cells were cultured in complete RPMI for the times indicated. Resting, primed, or activated B cells were cultured in the presence of T cells (vide supra). At the end of 16 h of culture, the cells were harvested and washed. Ethidium bromide (detected by red fluorescence) was added immediately before analysis of each tube. The cells were analyzed by first gating using forward vs. side scatter then using increased fluorescence as a measure of detection of the indicated cell surface antigens.

[2] = system: human B cells from peripheral blood mononuclear cells (PBMC); experiment: Human PBMC culture with toll ligands with or without peptides, CLIP on B cells; assay type: cell-based; conditions: for level of CLIP per B cell / percentage of CLIP+ B cells: PBMC of two donors cultured with R848 for 48 hours
Description: PBMC were prepared from a total of seven adult normal donors, five for examining the effects of TLR binding on the percentage of ectopic CLIP^+ B cells and changes in mean fluorescence intensity of the CLIP staining resulting from TLR stimulation with CpG-ODN, LPS, Pam-3-Cys, and Poly I:C. For these experiments, the cells were cultured at approximately 1×10^6 per ml with each TLR binding ligand added at 5 μg per ml. The other two donors were tissue typed for HLA phenotypes, were cultured with the TLR7/8 agonist CL097 for 48 hours with and without the computationally predicted competitive peptide or the scrambled analogue for 48 hours. For both experiments at the end of the appropriate culture period, cells were harvested and stained for cell surface CLIP using anti-human CLIP-FITC versus MHC class II HLA-DR-PE Cy5, or anti-human CLIP-FITC versus anti-human CD19-PE. Cells were analyzed using either a BD FacsCalibur, for the five samples, or a Coulter FC500 for the two tissue typed samples.
as §1
Because CLIP affinity for MHC class II molecules is allele dependent, the MHCPred (http://www.jenner.ac.uk/MHCPred/) and NetMHC (http://www.cbs.dtu.dk/services/NetMHC/) databases was used to determine binding affinities between CLIP for molecules encoded by either mouse or human MHC alleles. […] For human studies, PBMC were collected from donors, most of whose MHC tissue types (alleles for HLA-DR, DP, DQ, HLA-A, and HLA-B) were identified. The cells were cultured in the presence or absence of the TLR7/8-binding compound R848 (CLO97, Invivogen) for 48 hours. The cells were cultured in the presence or absence of VGV-hB peptide versus a control peptide of equal length (referred to henceforth as VGV-pB, whose binding depends upon the MHC allele/polymorphism of the individual) (FIGS. 13d and 13e). […] Considering polymorphic differences in MHC alleles between the two individuals, the ability of a given peptide to replace CLIP may vary as a function of the polymorphism between the two people. Data are representative of five different experiments performed over several months.

B6.129 (H-2b) mice [3] = experiment: CpG-ODN injected B6.129 mice with or without peptide (TLR-induced chronic hyperimmune activation); assay type: in vivo, mouse
Description: C57Bl6 and B6.129 mice were injected with CpG-oligo-deoxynucleotide (CpG-ODN (25 μg per mouse)). After 24, 72, or 96 hours, animals were humanely killed; spleens and lymph nodes were removed. The spleens and lymph nodes were passed through nylon mesh to recover single cell suspensions, and the cells were counted. Cells were stained as indicated and analyzed flow cytometrically using a Beckman Coulter Excel or Coulter FC500 flow cytometer.
as §1
Cell death was measured either by flow cytometric detection of forward versus side scatter or by DNA fragmentation. DNA fragmentation was quantified by terminal deoxynucleotidyl transferase (TdT; Promega, Madison, Wis.)-mediated fluorescein-12-deoxyuridine triphosphate (FITC-dUTP; Boehinger Mannheim Corporation, Indianapolis, Ind.) addition to the terminal 3′-OH ends of fragmented DNA (TUNEL assay) as previously described (18). Resting B cells (1×10^6) were combined with 1×10^5 T hybridoma cells, with or without antigen, and cultured for 16-17 h. The cultures were harvested and washed twice in PBS-2% FBS at 4° C. Subsequently, cells were incubated for 30 min at 4° C. in PBS-2% FBS […] Cells were washed in PBS and fixed in 1.5% paraformaldehyde in PBS (pH 7.4) for 1 h at 4° C. Cells were thoroughly washed in PBS and were resuspended in 50 μl of a reaction mixture containing the following: 5 units TdT, 0.1-0.2 nM FITC-dUTP and 1 nM each dATP, dCTP, and dGTP in 100 mM cacodylate buffer (pH 6.8) with 1 mM CoCl2 and 0.1 mg/ml BSA. Reactions were incubated for 1 h at 37° C. and stopped by washing with 0.25 M EDTA in Tris buffer (pH 7.4). Cells were then analyzed for two color fluorescence on the FC500.
Using mouse models for quantitative analysis of TLR-induced CHA, B6.129 (H-2^b) mice were injected with CpG-ODN alone or CpG-ODN in combination with VGV-hB. […] Because the binding constant of a peptide is also function of concentration, B6.129 mice were injected with peptide; either VGV-hB or VGV-sB, ranging in dose from 0.25, 2.5, 25, and 50 micrograms of peptide per mouse, (FIGS. 14c and 14d).

B6.129 (H-2b) mice [4] = experiment: as above; assay type: in vivo, mouse; conditions: CpG-ODN alone or with peptide, 48 hours
[5] = system: human B cell lines, Raji and Daudi; experiment: Synthetic peptide binding and competition with CLIP on B cell lines (anti-human CLIP Fitc versus Streptavidin); assay type: cell-based; conditions: for cell surface bound CLIP (Fitc-Anti-CLIP): biotinylated competing peptide, 50 microMolar
Description: Based on a computational model comparing the peptide content of TNP mixture and identifying those peptides that would have the likeliest ability to compete for the peptide/antigen binding site for MHC class II (human HLA-DR, DP, and DQ), several peptide candidates were synthesized and examined for activity. The purpose of the study was to determine if synthetic peptides can compete for binding with CLIP peptides as measured with either Fitc anti-human CLIP antibody or, comparatively in the case of biotinylated peptides, with Streptavidin.
Cell Culture Conditions: The Raji and Daudi cell lines were purchased from American Type Culture Collection, were thawed, and grown in RPMI 1640 medium supplemented with standard supplements, including 10% fetal calf serum, gentamycin, penicillin, streptomycin, sodium pyruvate, HEPES buffer, 1-glutamine, and 2-ME.
Protocol: Cells were plated into a 12 well plate with 3 mls total volume containing approximately 1.5×10^6/well for Daudi cells and 3.0×10^6/well for Raji cells. Treatment groups included no treatment as control; MKN 3 and MKN 5 at 50 microMolar final concentration based on the reported molarity of the synthesized compounds.
The cells were incubated at 37° C. in an atmosphere containing 5% CO2 and approximately 92% humidity. The cells were incubated for 4 and 24 hours. At each time point, the cells from that experimental time were harvested and stained for flow cytometric analysis of cell surface expression of CLIP (MHC Class II invariant peptide, human) by using the commercially available (Becton/Dickinson/PHarmingen) anti-human CLIP Fitc. Catalogue #555981 versus Streptavidin.
Harvested cells were stained using standard staining procedure that called for a 1:100 dilution of Fitc-anti-human CLIP or isotype control versus 1:200 dilution of the commercially prepared Streptavidin. Following staining on ice for 25 minutes, cells were washed with PBS/FCS and resuspended in 100 microliters and added to staining tubes containing 400 microliters of PBS. Samples were acquired and analyzed on a Coulter Excel Flow Cytometer.
In the Histogram analyses of FIGS. 5-7 the Y axis represents cell number of the 5000 live cells versus the X axis which is a reflection of relative Fitc fluorescence versus Streptavidin-PE (eBioscience, Cat. #12-4317) that will bind with high affinity to cell-bound biotinylated peptides. The distance between the histogram from the isotype control staining versus the histogram reflecting the specific stain and is a measure of level of cell surface CLIP or the biotinylated peptide when stained with Streptavidin on a population of live Raji or Daudi cells as indicated.

[6] = peptide in combination with TLR 9 stimulation (CpG-ODN)

## O=CC[C@@H](O)[C@H](O)[C@H](O)CO [2-Deoxyglucose]
B cell surface CLIP
  B cell surface CLIP: affects B cell surface CLIP

## C=CC[C@@H]1/C=C(\C)C[C@H](C)C[C@H](OC)[C@H]2O[C@@](O)(C(=O)C(=O)N3CCCC[C@H]3C(=O)O[C@H](/C(C)=C/[C@@H]3CC[C@@H](O)[C@H](OC)C3)[C@H](C)[C@@H](O)CC1=O)[C@H](C)C[C@@H]2OC [FK506, tacrolimus]
[1]
  immunosuppressive activity relative to cyclosporin: 10-100 times

## CCOCc1nc2c(N)nc3ccccc3c2n1CC(C)(C)O [R848, imidazoquinoline resiquimod]
Mouse splenic B cells
  exogenous CLIP expression on activated mouse B cells: resulted in exogenous CLIP expression

## (S)-(2,3-bis(palmitoyloxy)-(2RS)-propyl)-N-palmitoyl-(R)-Cys-(S)-Ser(S)-Lys4-OH, trihydrochloride [Pam3Cys]
Mouse splenic B cells
  exogenous CLIP expression on activated mouse B cells: resulted in exogenous CLIP expression

## ANSGIIGDITEEVGGQY [VGV-pB]
[2]
  level of CLIP per B cell: reduced the frequency of CLIP^+ B cells and the level of CLIP per cell in one individual but not the other
  percentage of CLIP+ B cells: reduced the frequency of CLIP^+ B cells and the level of CLIP per cell in one individual but not the other

## FRIMAVLAS [VGV-hB]
[2]
  level of CLIP per B cell: reduced the percentage of CLIP^+ B cells and the level of CLIP per B cell to pre-treatment levels
  percentage of CLIP+ B cells: reduced the percentage of CLIP^+ B cells and the level of CLIP per B cell to pre-treatment levels
B6.129 (H-2b) mice [3]; 0.25, 2.5, 25, and 50 micrograms of peptide per mouse
  reversal of CpG-ODN activation incl. percent of CLIP+ B cells from total spleen (peptide titration): reversed the effecs of CpG-ODN activation
B6.129 (H-2b) mice [3]; CpG-ODN injection in vivo, without or with peptide
  CD4+ FoxP3+ Tregs in the lymph nodes: reversible
B6.129 (H-2b) mice [3]; CpG-ODN with peptide, 24, 72, 96 hours
  effect of CpG-ODN on total cell numbers, absolute numbers of B cells, and CLIP+ B cell distribution between spleen and lymph node: reduced
B6.129 (H-2b) mice [3]; CpG-ODN with peptide, interpretation in discussion
  CD8+ T cells: promotes expansion
B6.129 (H-2b) mice [3]; [6]
  B cell death: increased B cell death
  number of live CD4+ T cells: moderate increase
B6.129 (H-2b) mice [4]
  splenic B lymphocytes and splenic CLIP+ B cells: reversed the effects of CPG alone

## FRIMAVLASSGGGANSGFRIMAVLASGGQY [MKN.3]
[5]; 4 hours
  cell surface bound CLIP (Fitc-Anti-CLIP): small decreases
[5]; 24 hours
  cell surface bound CLIP (Fitc-Anti-CLIP): significant decreases

## SGGGKALVQNDTLLQVKG (not fully specified (N-terminus); also: biotinylated, position not given here) [MKN.5]
[5]; 4 hours
  cell surface bound CLIP (Fitc-Anti-CLIP): small decreases
[5]; 24 hours
  cell surface bound CLIP (Fitc-Anti-CLIP): significant decreases

## SGGGSKMRMATPLLMQALY (Biotin-SGGGSKMRMATPLLMQALY) [MKN.1]
[5]; Raji or Daudi cells
  cell surface CLIP and CD74 levels: alters cell surface CLIP and CD74 levels

## lipopolysaccharide [LPS]
Mouse splenic B cells; in vitro stimulation of resting mouse splenocytes, 0 to 72 hours
  exogenous CLIP associated with MHC class II on splenic B cells: time-dependent increase
Mouse splenic B cells
  exogenous CLIP expression on activated mouse B cells: resulted in exogenous CLIP expression
[2]; PBMC from five healthy donors, toll ligand 5 ug per ml, 24 hours
  ectopic CLIP on human B cells: Statistically significant increases

## polyinosinic:polycytidylic acid [Poly I:C]
Mouse splenic B cells
  exogenous CLIP expression on activated mouse B cells: resulted in exogenous CLIP expression

Source: patent US20130259829A1, “CLIP INHIBITORS AND METHODS OF MODULATING IMMUNE FUNCTION” (The Regents of the University of Colorado, A Body Corporate, priority 2008, published 2013)
